Experimental data reported in patent US11452717B2, “Small molecule activators of nicotinamide phosphoribosyltransferase (NAMPT) and uses thereof” (Sanford Burnham Prebys Medical Discovery Institute, priority 2017, dated 2022).

target: NAMPT enzyme (Homo sapiens (Human), UniProt P43490); test: Enzyme Assay and NMN Detection (NAMPT reaction, fluorescence detection of NMN); assay type: biochemical; conditions: Table B-1; NAMPT activation, NMN formation
Procedure, shortened: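 NMN formed was read at ex380/em460 after acetophenone/KOH derivatization and formic acid addition, using a same-day calibration curve. Final conditions: NAMPT 16 nM, nicotinamide 5 uM, PRPP 6.25 uM, ATP 120 uM, pyrophosphatase 0.04 U/ml, pH 7.5 HEPES buffer with MgCl2 and TCEP, 2 h at room temperature.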

NAMPT enzyme, sequence (P43490 whole entry, species assumed): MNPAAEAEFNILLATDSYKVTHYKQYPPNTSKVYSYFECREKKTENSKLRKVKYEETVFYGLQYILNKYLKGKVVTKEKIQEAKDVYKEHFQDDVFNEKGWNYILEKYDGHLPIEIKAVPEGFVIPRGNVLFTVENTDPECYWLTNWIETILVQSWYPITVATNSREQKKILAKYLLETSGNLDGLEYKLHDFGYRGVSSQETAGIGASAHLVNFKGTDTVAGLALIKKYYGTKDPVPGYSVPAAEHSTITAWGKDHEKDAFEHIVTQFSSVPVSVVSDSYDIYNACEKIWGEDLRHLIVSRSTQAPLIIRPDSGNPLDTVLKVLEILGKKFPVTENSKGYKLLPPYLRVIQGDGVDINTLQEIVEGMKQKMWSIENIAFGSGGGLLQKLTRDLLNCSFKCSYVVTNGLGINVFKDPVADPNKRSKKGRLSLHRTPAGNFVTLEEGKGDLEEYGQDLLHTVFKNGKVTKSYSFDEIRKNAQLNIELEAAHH

Row | SMILES | EC50 [µM]
1 | O=C(NCc1cn[nH]c1)Nc1ccc(S(=O)(=O)N2CC3CCC(C2)O3)cc1 [1-[4-(8-Oxa-3-aza-bicyclo[3.2.1]octane-3-sulfonyl)-phenyl]-3-(1H-pyrazol-4-ylmethyl)-urea] | 0.1 to 2
2 | O=C(NCc1cn[nH]c1)Nc1ccc(C(=O)Nc2ccccc2Cl)cc1 [4-(3-((1H-pyrazol-4-yl)methyl)ureido)-N-(2-chlorophenyl)benzamide] | 0.1 to 2
3 | COc1ccccc1NC(=O)c1ccc(NC(=O)NCc2cn[nH]c2)cc1 [4-(3-((1H-pyrazol-4-yl)methyl)ureido)-N-(2-methoxyphenyl)benzamide] | 0.1 to 2
4 | COc1cccc(NC(=O)c2ccc(NC(=O)NCc3cn[nH]c3)cc2)c1 [4-(3-((1H-pyrazol-4-yl)methyl)ureido)-N-(3-methoxyphenyl)benzamide] | 0.1 to 2
5 | O=C(NCc1cn[nH]c1)Nc1ccc(C(=O)Nc2ccc(Cl)cc2)cc1 [4-(3-((1H-pyrazol-4-yl)methyl)ureido)-N-(4-chlorophenyl)benzamide] | 0.1 to 2
6 | COc1ccc(NC(=O)c2ccc(NC(=O)NCc3cn[nH]c3)cc2)cc1 [4-(3-((1H-pyrazol-4-yl)methyl)ureido)-N-(4-methoxyphenyl)benzamide] | 0.1 to 2

same assay, conditions: Table B-2; NAMPT activation, NMN formation

Row | SMILES | EC50 [µM]
7 | O=C(NCc1ccncc1)Nc1ccc(S(=O)(=O)N2CC3CCC(C2)O3)cc1 [1-[4-(8-Oxa-3-aza-bicyclo[3.2.1]octane-3-sulfonyl)-phenyl]-3-pyridin-4-ylmethyl-urea] | 0.1 to 2
8 | O=C(NCc1ccncc1)Nc1ccc(S(=O)(=O)N2CCOCC2)cc1 [1-[4-(Morpholine-4-sulfonyl)-phenyl]-3-pyridin-4-ylmethyl-urea] | 0.1 to 2
9 | O=C(NCc1ccncc1)Nc1ccc(S(=O)(=O)N2CCNCC2)cc1 [1-[4-(Piperazine-1-sulfonyl)-phenyl}-3-pyridin-4-ylmethyl-urea] | 5 to 20
10 | O=C(NCc1ccncc1)Nc1ccc(S(=O)(=O)N2CCCCC2)cc1 [1-[4-(Piperidine-1-sulfonyl)-phenyl]-3-pyridin-4-ylmethyl-urea] | 0.1 to 2
11 | O=C(NCc1ccncc1)Nc1ccc(NS(=O)(=O)c2ccccc2Cl)cc1 [2-Chloro-N-[4-(3-pyridin-4-ylmethyl-ureido)-phenyl]-benzenesulfonamide] | < 0.1
12 | COc1ccccc1S(=O)(=O)Nc1ccc(NC(=O)NCc2ccncc2)cc1 [2-Methoxy-N-[4-(3-pyridin-4-ylmethyl-ureido)-phenyl]-benzenesulfonamide] | 0.1 to 2
13 | COC(=O)c1ccccc1CNS(=O)(=O)c1ccc(NC(=O)NCc2ccncc2)cc1 [2-{[4-(3-Pyridin-4-ylmethyl-ureido)-benzenesulfonylamino]-methyl}-benzoic acid methyl ester] | < 0.1
14 | O=C(NCc1ccncc1)Nc1cccc(C(=O)O)c1 [3-(3-(Pyridin-4-ylmethyl)ureido)benzoic acid] | > 20
15 | O=C(NCc1ccncc1)Nc1ccc(NS(=O)(=O)c2cccc(Cl)c2)cc1 [3-Chloro-N-[4-(3-pyridin-4-ylmethyl-ureido)-phenyl]-benzenesulfonamide] | < 0.1
16 | COc1cccc(S(=O)(=O)Nc2ccc(NC(=O)NCc3ccncc3)cc2)c1 [3-Methoxy-N-[4-(3-pyridin-4-ylmethyl-ureido)-phenyl]-benzenesulfonamide] | < 0.1
17 | COC(=O)c1cccc(CNS(=O)(=O)c2ccc(NC(=O)NCc3ccncc3)cc2)c1 [3-{[4-(3-Pyridin-4-ylmethyl-ureido)-benzenesulfonylamino]-methyl}-benzoic acid methyl ester] | 0.1 to 2
18 | O=C(NCc1ccncc1)Nc1ccc(C(=O)NCCN2CCCC2)cc1 [4-(3-(Pyridin-4-ylmethyl)ureido)-N-(2-(pyrrolidin-1-yl)ethyl)benzamide] | 2 to 5
19 | O=C(NCc1ccncc1)Nc1ccc(C(=O)Nc2ccccc2OC(F)(F)F)cc1 [4-(3-(Pyridin-4-ylmethyl)ureido)-N-(2-(trifluoromethoxy)phenyl)benzamide] | 0.1 to 2
20 | Cc1cccc(NC(=O)c2ccc(NC(=O)NCc3ccncc3)cc2)c1 [4-(3-(Pyridin-4-ylmethyl)ureido)-N-(m-tolyl)benzamide] | 0.1 to 2
21 | Cc1ccccc1NC(=O)c1ccc(NC(=O)NCc2ccncc2)cc1 [4-(3-(Pyridin-4-ylmethyl)ureido)-N-(o-tolyl)benzamide] | 0.1 to 2
22 | Cc1ccc(NC(=O)c2ccc(NC(=O)NCc3ccncc3)cc2)cc1 [4-(3-(Pyridin-4-ylmethyl)ureido)-N-(p-tolyl)benzamide] | 2 to 5
23 | O=C(NCc1ccncc1)Nc1ccc(C(=O)Nc2cccs2)cc1 [4-(3-(Pyridin-4-ylmethyl)ureido)-N-(thiophen-2-yl)benzamide] | 2 to 5
24 | NC(=O)c1ccc(NC(=O)NCc2ccncc2)cc1 [4-(3-(Pyridin-4-ylmethyl)ureido)benzamide] | 5 to 20
25 | O=C(NCc1ccncc1)Nc1ccc(C(=O)O)cc1 [4-(3-(Pyridin-4-ylmethyl)ureido)benzoic acid] | > 20
26 | O=C(NCc1ccncc1)Nc1ccc(C(=O)Nc2cccc(OC(F)(F)F)c2)cc1 [4-(3-(pyridin-4-ylmethyl)ureido)-N-(3-(trifluoromethoxy)phenyl)benzamide] | 2 to 5
27 | O=C(NCc1ccncc1)Nc1ccc(C(=O)Nc2ccc(OC(F)(F)F)cc2)cc1 [4-(3-(pyridin-4-ylmethyl)ureido)-N-(4-(trifluoromethoxy)phenyl)benzamide] | 0.1 to 2
28 | O=C(NCc1ccncc1)Nc1ccc(C(=O)Nc2cncnc2)cc1 [4-(3-(pyridin-4-ylmethyl)ureido)-N-(pyrimidin-5-yl)benzamide] | 0.1 to 2
29 | O=C(NCc1ccncc1)Nc1ccc(C(=O)NC2CCOC2)cc1 (stereo not drawn) [4-(3-(pyridin-4-ylmethyl)ureido)-N-(tetrahydrofuran-3-yl)benzamide] | 5 to 20
30 | O=C(NCc1ccncc1)Nc1ccc(S(=O)(=O)NC2CCCc3ccccc32)cc1 (stereo not drawn) [4-(3-Pyridin-4-ylmethyl-ureido)-N-(1,2,3,4-tetrahydro-naphthalen-1-yl)-benzenesulfonamide] | < 0.1
31 | O=C(NCc1ccncc1)Nc1ccc(S(=O)(=O)NCCN2CCCC2)cc1 [4-(3-Pyridin-4-ylmethyl-ureido)-N-(2-pyrrolidin-1-yl-ethyl)-benzensulfonamide] | 2 to 5
32 | O=C(NCc1ccncc1)Nc1ccc(S(=O)(=O)NCc2ccccc2OC(F)(F)F)cc1 [4-(3-Pyridin-4-ylmethyl-ureido)-N-(2-trifluoromethoxy-benzyl)-benzenesulfonamide] | < 0.1
33 | O=C(NCc1ccncc1)Nc1ccc(S(=O)(=O)NCc2ccccc2C(F)(F)F)cc1 [4-(3-Pyridin-4-ylmethyl-ureido)-N-(2-trifluoromethyl-benzyl)-benzenesulfonamide] | 0.1 to 2

same assay, conditions: Table B-3; NAMPT activation, NMN formation

Row | SMILES | EC50 [µM]
34 | O=C(NCc1ccccn1)Nc1ccc(S(=O)(=O)N2CC3CCC(C2)O3)cc1 [1-[4-(8-Oxa-3-aza-bicyclo[3.2.1]octane-3-sulfonyl)-phenyl]-3-pyridin-2-ylmethyl-urea] | > 20
35 | CCOC(=O)c1ccc2c(cnn2C(=O)NCc2ccncc2)c1 [1-[(Pyridin-4-ylmethyl)-carbamoyl]-1H-indazole-5-carboxylic acid ethyl ester] | > 20
36 | CCOC(=O)c1ccc(N2CCN(Cc3ccncc3)C2=O)cc1 [4-(2-Oxo-3-pyridin-4-ylmethyl-imidazolidin-1-yl)-benzoic acid ethyl ester] | > 20
37 | O=C(O)c1ccc(N2CCN(Cc3ccncc3)C2=O)cc1 [4-(2-oxo-3-pyridin-4-ylmethyl-imidazolidin-1-yl)-benzoic acid] | > 20
38 | CCOC(=O)c1ccc(NC(=O)N(C)Cc2ccccc2)cc1 [4-(3-Benzyl-3-methyl-ureido)-benzoic acid ethyl ester] | > 20

same assay, conditions: Table B-4; NAMPT activation, NMN formation

Row | SMILES | EC50 [µM]
39 | O=C(NCc1cn[nH]c1)Nc1ccc(S(=O)(=O)c2cnccn2)cc1 [1-[4-(Pyrazine-2-sulfonyl)-phenyl]-3-(1H-pyrazol-4-ylmethyl)-urea] | 0.1 to 2
40 | O=C(NCc1cn[nH]c1)Nc1ccc(Nc2nc(-c3ccccc3Cl)cs2)cc1 [1-{4-[4-(2-Chloro-phenyl)-thiazol-2-ylamino]-phenyl}-3-(1H-pyrazol-4-ylmethyl)-urea] | 5 to 20
41 | O=C(NCc1cn[nH]c1)Nc1ccc(Nc2nc(-c3ccccc3F)cs2)cc1 [1-{4-[4-(2-Fluoro-phenyl)-thiazol-2-ylamino]-phenyl}-3-(1H-pyrazol-4-ylmethyl)-urea] | 0.1 to 2
42 | O=C(NCc1cn[nH]c1)Nc1ccc(Nc2nc(-c3cccc(Cl)c3)cs2)cc1 [1-{4-[4-(3-Chloro-phenyl)-thiazol-2-ylamino]-phenyl}-3-(1H-pyrazol-4-ylmethyl)-urea] | 2 to 5
43 | O=C(NCc1cn[nH]c1)Nc1ccc(Nc2nc(-c3cccc(F)c3)cs2)cc1 [1-{4-[4-(3-Fluoro-phenyl)-thiazol-2-ylamino]-phenyl}-3-(1H-pyrazol-4-ylmethyl)-urea] | 0.1 to 2
44 | O=C(NCc1cn[nH]c1)Nc1ccc(Nc2nc(-c3ccc(Cl)cc3)cs2)cc1 [1-{4-[4-(4-Chloro-phenyl)-thiazol-2-ylamino]-phenyl}-3-(1H-pyrazol-4-ylmethyl)-urea] | 0.1 to 2
45 | O=C(NCc1cn[nH]c1)Nc1ccc(Nc2nc(-c3ccc(F)cc3)cs2)cc1 [1-{4-[4-(4-Fluoro-phenyl)-thiazol-2-ylamino]-phenyl}-3-(1H-pyrazol-4-ylmethyl)-urea] | 0.1 to 2

same assay, conditions: Table B-6; NAMPT activation, NMN formation

Row | SMILES | EC50 [µM]
46 | O=C(NCc1ccncc1)Nc1ccc(Nc2nc3ccccc3s2)cc1 [1-[4-(Benzothiazol-2-ylamino)-phenyl]-3-pyridin-4-ylmethyl-urea] | 5 to 20
47 | O=C(NCc1ccncc1)Nc1ccc(S(=O)(=O)c2cnccn2)cc1 [1-[4-(Pyrazine-2-sulfonyl)-phenyl]-3-pyridin-4-ylmethyl-urea] | 0.1 to 2
48 | O=C(NCc1ccncc1)Nc1ccc(S(=O)(=O)c2cccnc2)cc1 [1-[4-(Pyridine-3-sulfonyl)-phenyl]-3-pyridin-4-ylmethyl-urea] | 0.1 to 2
